Laboratory results: patent US12350270B2, “Antimalarial agents” (Merck Sharp & Dohme LLC, priority 2019, dated 2025)

Tested on: parasites (ring stage, in human red blood cell culture)
Assay: Parasite LDH growth assay (antiparasite potency, Parasite Assay)
Assay type: cell-based, Plasmodium falciparum
Settings: 0.7% rings, 2% haematocrit, 72 hours at 37° C., LDH readout of parasite growth
In short: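 Ring-stage parasites at 0.7% parasitemia and 2% haematocrit, in RPMI-Hepes/bicarbonate with 5% heat-inactivated human serum and 0.5% albumax, were added to compound-containing medium. Cultures grew 72 h at 37 °C in gassed humidified boxes. Plates were then frozen overnight at −80 °C, thawed 4 h, and growth was measured by LDH assay.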

Compared with `CCC1(CC)CC(=O)N([C@H]2c3cc(C(=O)NC4c5ccccc5CC4(C)O)ccc3OC2(C)COC)C(=N)N1` (stereo partly drawn) [Example 77B, (2S,3S)-3-(4,4-diethyl-2-imino-6-oxotetrahydropyrimidin-1(2H)-yl)-N-(2-hydroxy-2-methyl-2,3-dihydro-1H-inden-1-yl)-2-(methoxymethyl)-2-methyl-2,3-dihydrobenzofuran-5-carboxamide], `CCC1(CC)CC(=O)N([C@H]2c3cc(C(=O)N[C@H]4CC(C)(C)Oc5ccccc54)ccc3O[C@]2(C)COC)C(=N)N1` (single isomer, unassigned) [Example 74A] is 71-fold lower in EC50: 21.4 nM for the first, 0.3 nM for the second. The second is the more potent here.

Compared with `CCC1(CC)CC(=O)N([C@@H]2CCOc3ccc(C(=O)NC4c5ccccc5OCC4O)cc32)C(=N)N1` (single isomer, unassigned) [Example 8D], `CCC1(CC)CC(=O)N([C@H]2c3cc(C(=O)N[C@@H]4c5ccccc5C[C@H]4O)ccc3CC2OC)C(=N)N1` (stereo partly drawn) [Example 140B, (3S)-3-(4,4-diethyl-2-imino-6-oxo-hexahydropyrimidin-1-yl)-N-[(1R,2R)-2-hydroxyindan-1-yl]-2-methoxy-indane-5-carboxamide] is 51-fold lower in EC50: 86 nM for the first, 1.7 nM for the second.

Compared with `CC[C@]1(C)CC(=O)N(C2CC(C)Oc3ccc(C(=O)N[C@@H]4c5ccccc5OC[C@@]4(C)O)cc32)C(=N)N1` (single isomer, unassigned) [Example 181B], `CCC1(CC)CC(=O)N(C2c3cc(C(=O)N[C@@H]4c5ccccc5OC(C)(C)[C@H]4O)ccc3CC2OC)C(=N)N1` (single isomer, unassigned) [Example 251B] is 5.3-fold lower in EC50: 7.9 nM for the first, 1.5 nM for the second. The second is the more potent here.

Same assay, conditions: Plasmodium falciparum, Erythrocyte, 72 h, 0.7% rings, 2% haematocrit, 72 hours at 37° C., LDH readout of parasite growth

First: CCC1(CC)CC(=O)N([C@H]2c3cc(C(=O)N[C@@H]4c5ccccc5C[C@H]4O)ccc3CC[C@@H]2OC)C(=N)N1 [Example 165, (3S,4S)-4-(4,4-diethyl-2-imino-6-oxo-hexahydropyrimidin-1-yl)-N-[(1R,2R)-2-hydroxyindan-1-yl]-3-methoxy-tetralin-6-carboxamide]
Second: CCC1(CC)CC(=O)N([C@H]2c3cc(C(=O)N[C@@H]4c5ccccc5C[C@H]4O)ccc3CC2OC)C(=N)N1 (stereo partly drawn) [Example 140A, (3S)-3-(4,4-diethyl-1-imino-6-oxo-hexahydroyrimidin-1-yl)-N-[(1R,2R)-2-hydroxyindan-1-yl]-2-methoxy-indane-5-carboxamide]
The EC50 of the first is 2.4-fold higher: 3.4 nM for the first, 1.4 nM for the second. The second is the more potent here.

First: CCC1(CC)CC(=O)N([C@H]2c3cc(C(=O)N[C@@H]4c5ccccc5C[C@H]4O)ccc3OC[C@H]2C)C(=N)N1 [Example 118, (3S,4R)-4-(4,4-diethyl-2-imino-6-oxo-hexahydropyrimidin-1-yl)-N-[(1R,2R)-2-hydroxyindan-1-yl]-3-methyl-chromane-6-carboxamide]
Second: COC1COc2ccc(C(=O)N[C@@H]3c4ccccc4C[C@H]3O)cc2C1N1C(=N)NC(C)(C)CC1=O (stereo partly drawn) [Example 110, N-[(1R,2R)-2-hydroxyindan-1-yl]-4-(2-imino-4,4-dimethyl-6-oxo-hexahydropyrimidin-1-yl)-3-methoxy-chromane-6-carboxamide]
The EC50 of the first is 67-fold lower: 0.9 nM for the first, 60 nM for the second.

Going from `CC1(C)CC(=O)N([C@@H]2CCc3ccc(C(=O)N[C@H]4CC(C)(C)Oc5ccccc54)cc32)C(=N)N1` [Example 84, (3R)-N-[(4S)-2,2-dimethylchroman-4-yl]-3-(2-imino-4,4-dimethyl-6-oxo-hexahydropyrimidin-1-yl)indane-5-carboxamide] to `CC[C@]1(C)CC(=O)N([C@@H]2CCc3ccc(C(=O)N[C@@H]4c5ccccc5OC[C@]4(C)O)cc32)C(=N)N1` [Example 99, (3R)-3-[(4R)-4-ethyl-2-imino-4-methyl-6-oxo-hexahydropyrimidin-1-yl]-N-[(3R,4R)-3-hydroxy-3-methyl-chroman-4-yl]indane-5-carboxamide], the EC50 rises from 0.9 nM to 4.2 nM (4.7-fold). The first is the more potent here.

Going from `CCC1(CC)CC(=O)N([C@@H]2CCOc3ccc(C(=O)N[C@@H]4c5cc(Br)ccc5OC(C)(C)[C@H]4O)cc32)C(=N)N1` [Example 15A, (R)-N-((3S,4R)-6-bromo-3-hydroxy-2,2-dimethylchroman-4-yl)-4-(4,4-diethyl-2-imino-6-oxotetrahydropyrimidin-1(2H)-yl)chromane-6-carboxamide] to `CCC1(CC)CC(=O)N([C@@H]2CCOc3ccc(C(=O)N[C@@H]4c5cc(F)ccc5OC(C)(C)[C@H]4O)cc32)C(=N)N1` [Example 25A, (R)-4-(4,4-diethyl-2-imino-6-oxotetrahydropyrimidin-1(2H)-yl)-N-((3S,4R)-6-fluoro-3-hydroxy-2,2-dimethylchroman-4-yl)chromane-6-carboxamide], the EC50 rises from 0.3 nM to 0.5 nM (1.7-fold).

Going from `CCC1(CC)CC(=O)N([C@@H]2CCOc3ccc(C(=O)N[C@@H]4c5ccccc5CC4(C)O)cc32)C(=N)N1` (single isomer, unassigned) [Example 44A] to `CCC1(CC)CC(=O)N([C@@H]2CCS(=O)(=O)c3ccc(C(=O)N[C@@H]4c5ccccc5C[C@@]4(C)O)cc32)C(=N)N1` [Example 260, (4R)-4-(4,4-diethyl-2-imino-6-oxo-hexahydropyrimidin-1-yl)-N-[(1R,2R)-2-hydroxy-2-methyl-indan-1-yl]-1,1-dioxo-3,4-dihydro-2H-thiochromene-6-carboxamide], the EC50 rises from 1.5 nM to 8.2 nM (5.5-fold).

First: COCC1(C)Oc2ccc(C(=O)N[C@@H]3c4ccccc4C[C@]3(C)O)cc2C1N1C(=N)NC(C)(C)CC1=O (stereo partly drawn) [Example 183, N-[(1R,2S)-2-hydroxy-2-methyl-indan-1-yl]-3-(2-imino-4,4-dimethyl-6-oxo-hexahydropyrimidin-1-yl)-2-(methoxymethyl)-2-methyl-3H-benzofuran-5-carboxamide]
Second: CCC1(CC)CC(=O)N([C@H]2c3cc(C(=O)N[C@@H]4c5ccccc5OC[C@@]4(C)O)ccc3O[C@@]2(C)COC)C(=N)N1 [Example 281, (2R,3S)-3-(4,4-diethyl-2-imino-6-oxo-hexahydropyrimidin-1-yl)-N-[(3S,4R)-3-hydroxy-3-methyl-chroman-4-yl]-2-(methoxymethyl)-2-methyl-3H-benzofuran-5-carboxamide]
The EC50 of the first is 65-fold higher: 71.4 nM for the first, 1.1 nM for the second. The second is the more potent here.

Going from `CC[C@]1(C)CC(=O)N([C@H]2c3cc(C(=O)N[C@@H]4c5ccccc5OC(C)(C)[C@H]4O)ccc3C[C@H]2C)C(=N)N1` [Example 168, (2R,3R)-3-[(4R)-4-ethyl-2-imino-4-methyl-6-oxo-hexahydropyrimidin-1-yl]-N-[(3S,4R)-3-hydroxy-2,2-dimethyl-chroman-4-yl]-2-methyl-indane-5-carboxamide] to `C[C@H]1Cc2ccc(C(=O)N[C@@H]3c4ccccc4OC(C)(C)[C@H]3O)cc2[C@@H]1N1C(=N)NC(C)(C)CC1=O` [Example 136, (2S,3R)-N-[(3S,4R)-3-hydroxy-2,2-dimethyl-chroman-4-yl]-3-(2-imino-4,4-dimethyl-6-oxo-hexahydropyrimidin-1-yl)-2-methyl-indane-5-carboxamide], the EC50 rises from 0.4 nM to 1.3 nM (3.2-fold). The first is the more potent here.

Going from `CC[C@]1(C)CC(=O)N([C@@H]2C[C@@H](C)c3ccc(C(=O)N[C@@H]4c5ccccc5OC[C@@]4(C)O)cc32)C(=N)N1` [Example 131, (1R,3R)-3-[(4R)-4-ethyl-2-imino-4-methyl-6-oxo-hexahydropyrimidin-1-yl]-N-[(3S,4R)-3-hydroxy-3-methyl-chroman-4-yl]-1-methyl-indane-5-carboxamide] to `CCC1(CC)CC(=O)N(C2CCCc3ccc(C(=O)N[C@@H]4c5ccccc5OC[C@@]4(C)O)cc32)C(=N)N1` (stereo partly drawn) [Example 161, 8-(4,4-diethyl-2-imino-6-oxotetrahydropyrimidin-1(2H)-yl)-N-((3S,4R)-3-hydroxy-3-methylchroman-4-yl)-5,6,7,8-tetrahydronaphthalene-2-carboxamide], the EC50 falls from 2 nM to 0.8 nM (2.5-fold).
